This passage reports IC50 results from patent US10927086B2, “Substituted sulfoximine compounds as indoleamine 2,3-dioxygenase (IDO) inhibitors” (Merck Sharp & Dohme Corp., priority 2017, dated 2021).

Test [1] addresses T1, IDO1 (Homo sapiens (Human), UniProt P14902). Kind of test: IDO1 Enzyme Assay. The class given is biochemical. The note with it: HIS-tagged recombinant IDO1, fluorescence readout. On the procedure:
Compounds to be tested were serially diluted in ten 3-fold steps in DMSO starting from 10 mM DMSO stocks. Compound dilutions or DMSO alone were then dispensed from the dilution plate into a Greiner black 384-well assay plate (catalog #781086) using an Echo 555 acoustic liquid handler (Labcyte).
HIS-tagged IDO1 protein was recombinantly expressed in Escherichia coli using ZYP5052 autoinduction media supplemented with 500 μM delta aminolevulinic acid for 48 h at 16° C. IDO1 protein was purified using Ni^2+-affinity resin and size exclusion chromatography. Purified protein was then diluted in assay buffer (50 mM Tris pH 7.0, 1% glycerol, 20 μM methylene blue, 0.05% Tween-20, 20 mM sodium ascorbate, 100 units/mL catalase to obtain a final IDO1 concentration of 40 nM. IDO1 solution […] or buffer alone ([…]) were dispensed to wells of the assay plate using a BioRAPTR liquid dispenser (Beckman Coulter). Assay plates containing compound and IDO1 enzyme were incubated at RT for 30 min. Afterwards, 10 μL of 400 μM tryptophan in assay buffer were added to each well of the assay plate using a BioRAPTR liquid dispenser. Plates were incubated at RT for 60 min and reactions were quenched by addition of 10 μL of 0.5 M methyl isonipecotate in dimethyl sulfoxide. Plates were sealed and incubated at 37° C. for 4 h or 50° C. for 2 h. The plates are allowed to cool and then centrifuged for 1 min at 1000×g. The resulting fluoresence was measured in an Envision plate reader (Perkin Elmer) with a 400/25 nm excitation filter and an 510/20 nm emission filter.
Potencies were calculated by linear least squares fit to the four parameter logistic IC50 equation.
Target sequence in this assay (P14902 whole entry, species assumed): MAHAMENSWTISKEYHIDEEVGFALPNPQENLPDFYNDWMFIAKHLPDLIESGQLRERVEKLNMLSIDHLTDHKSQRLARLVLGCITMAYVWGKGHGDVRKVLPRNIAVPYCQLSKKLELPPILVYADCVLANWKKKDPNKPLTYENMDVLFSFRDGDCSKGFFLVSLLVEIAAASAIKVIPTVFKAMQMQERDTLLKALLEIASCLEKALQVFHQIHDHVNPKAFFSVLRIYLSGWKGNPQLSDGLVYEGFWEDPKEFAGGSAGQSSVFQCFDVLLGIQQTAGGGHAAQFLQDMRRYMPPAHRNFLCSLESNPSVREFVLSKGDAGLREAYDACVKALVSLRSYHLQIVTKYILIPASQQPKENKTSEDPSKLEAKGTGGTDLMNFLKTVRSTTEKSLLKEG

Test [2] addresses T1, IDO1. Kind of test: IDO1 Cellular Assay in Hela Cells Stimulated with IFNγ. The class given is cell-based. Particulars: about 48 hours, read-out: IDO1 HELA Cell Assay, IC50. On the procedure:
Hela cells were cultured in complete Hela culture medium (90% EMEM, 10% heat-inactivated fetal bovine serum) and expanded to about 1×10^9 cells. The cells were then collected and frozen down at 10×10^6 cells/vial in 1 mL frozen medium (90% complete Hela culture medium, 10% DMSO)
Compounds to be tested were serially diluted in ten 3-fold steps in DMSO starting from 10 mM DMSO stocks in Echo low volume plate(s). Compound dilutions or DMSO alone were then dispensed from the dilution plate(s) into Greiner black 384-well assay plate(s) (catalog #781086, 50 nL/well) using an Echo 550 acoustic liquid handler (Labcyte).
Frozen Hela cells were thawed and transferred into Hela assay medium (99% complete Hela culture medium, 1% Pen/Strep) with 20 mL medium/vial of cells. The cells were spun down at 250 g in a table top centrifuge for 5 min and suspended in same volume of Hela assay medium. The cells were then counted and adjusted to a density of 2×10^5 cells/ml in Hela assay medium. Sterile L-tryptophan were added to the cells with final concentration of 300 uM L-tryptophan. A small aliquot (2 mL/plate) of Hela cells were set aside and were not treated with IFNγ, to serve as the Max-E control. The rest of Hela cells were added with sterile IFNγ (Cat #285-IF, R & D systems) with a final concentration of 100 ng/mL.
Hela cells with and without IFNγ were dispensed to the respective wells of 384-well assay plates containing the compounds. The plates were incubated for about 48 hours at a 37° C., 5% CO2 incubator. Afterwards, 12 μL of 0.5 M methyl isonipecotate in dimethyl sulfoxide were added into each well and the plates were sealed and incubated at 37° C. without CO2 overnight. The plates were centrifuged for 1 min at 200×g. The resulting fluorescence was measured in a Spectramax plate reader (Molecular Devices) with a 400 nm excitation filter and a 510 nm emission filter.
The fluorescence intensity of each well was corrected for the background observed in wells with non-IFNγ-treated cells and was expressed as a fraction of the intensity observed in wells of IFNγ-treated cells and DMSO only. Potencies were calculated by linear least squares fit to the four parameter logistic IC50 equation.
Target sequence in this assay (P14902 whole entry): as the sequence (P14902 whole entry, species assumed) above

Turning to `C[S@](=N)(=O)C1CC(Nc2nonc2/C(=N\O)N[C@@H]2Cc3ccc(F)cc32)C1` (single isomer, unassigned) [Example 72], the figures for the IC50 on IDO1 [1] and on IDO1 [2] were 49.5 nM and 63.5 nM, respectively.
Turning to `CN=S(C)(=O)NCCNc1nonc1/C(=N\O)N[C@H]1Cc2ccc(F)cc21` (single isomer, unassigned) [Example 66], the IC50 (usually the concentration that gives 50% inhibition) was 80.8 nM at IDO1 [1] and 59.6 nM at IDO1 [2].
For `CS(=N)(=O)N1CC(CNc2nonc2/C(=N\O)N[C@@H]2Cc3ccc(F)cc32)C1` (single isomer, unassigned) [Example 70] the same measures were 79.7 nM and 41.6 nM.
For `CS(=N)(=O)CCC(O)CNc1nonc1/C(=N\O)N[C@@H]1Cc2ccc(F)cc21` (single isomer, unassigned) [Example 78] the same measures were 57.8 nM and 74.8 nM.
As for `CS(=N)(=O)CCCCOc1nonc1/C(=N/O)N[C@H]1Cc2ccc(F)cc21` (single isomer, unassigned) [Example 32], the figures for the IC50 at IDO1 [1] and at IDO1 [2] were 178 nM and 241 nM, respectively.
For `CS(=N)(=O)CC(O)CNc1nonc1/C(=N/O)N[C@H]1Cc2ccc(F)cc21` (single isomer, unassigned) [Example 28] the same measures were 60.7 nM and 110 nM.
Regarding `CS(=N)(=O)N[C@H]1C[C@@H](Oc2nonc2/C(=N\O)N[C@@H]2Cc3ccc(F)cc32)C1` (single isomer, unassigned) [Example 61], the figures for the IC50 on IDO1 [1] and at IDO1 [2] were 81.6 nM and 128 nM, respectively.
For `CC(O)CS(=N)(=O)CCNc1nonc1/C(=N\O)N[C@@H]1Cc2ccc(F)cc21` (single isomer, unassigned) [Example 85] the same measures were 49.5 nM and 49.7 nM.
`CS(=N)(=O)CCCNc1nonc1/C(=N/O)N[C@H]1Cc2ccc(F)cc21` (single isomer, unassigned) [Example 24]: the IC50 was determined as 35.4 nM on IDO1 [1] and 39.9 nM on IDO1 [2].
Regarding `CN=S(C)(=O)NCCNc1nonc1/C(=N\O)N[C@H]1Cc2ccc(F)cc21` (single isomer, unassigned) [Example 67], the figures for the IC50 at IDO1 [1] and at IDO1 [2] were 63.7 nM and 140 nM, respectively.
On to `CS(=N)(=O)N1CCC(Nc2nonc2/C(=N/O)N[C@H]2Cc3ccc(F)cc32)C1` (single isomer, unassigned) [Example 44], for which the IC50 is 220 nM at IDO1 [1] and 219 nM at IDO1 [2].
For `N=S(N)(=O)CCCNc1nonc1/C(=N\O)NC1Cc2ccc(F)cc21` (stereo in doubt) [Example 65, 4-{[3-(S-aminosulfonimidoyl)propyl]amino}-N-[(7S)-4-fluorobicyclo[4.2.0]octa-1,3,5-trien-7-yl]-N′-hydroxy-1,2,5-oxadiazole-3-carboximidamide] the same measures were 48.2 nM and 25.7 nM.
For `CS(=N)(=O)N1CCC(Nc2nonc2/C(=N/O)N[C@H]2Cc3ccc(F)cc32)CC1` (single isomer, unassigned) [Example 19] the same measures were 67.2 nM and 62.1 nM.
As to `CS(=N)(=O)N1CCC(Nc2nonc2/C(=N/O)N[C@H]2Cc3ccc(F)cc32)C1` (single isomer, unassigned) [Example 46], the IC50 on IDO1 [1] was 175 nM; at IDO1 [2] it was 153 nM.
For `CS(=N)(=O)CC12CC(Nc3nonc3/C(=N\O)N[C@@H]3Cc4ccc(F)cc43)(C1)C2` (single isomer, unassigned) [Example 83] the same measures were 81.5 nM and 83.9 nM.
Turning to `C[S@@](=N)(=O)CCCOc1nonc1/C(=N/O)NC1Cc2ccc(F)cc21` (single isomer, unassigned) [Example 31], the half-maximal inhibitory concentration (IC50) on IDO1 [1] is 213 nM; on IDO1 [2], 356 nM.
`CS(=N)(=O)CC(O)CNc1nonc1/C(=N/O)N[C@H]1Cc2ccc(F)cc21` (single isomer, unassigned) [Example 27]: the half-maximal inhibitory concentration (IC50) at IDO1 [1] is 43.3 nM; on IDO1 [2] it was 129 nM.
